Measured values reported in PubChem BioAssay AID1845210 (Molecular Pharmacology Branch, DTP, NCI, 2023).

System: NCI-H226 complex tumor spheroids, viability
Assay: Anticancer human tumor NCI-H226 cell line growth inhibition;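 also: spheroids exposed to compound for 7 days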;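 as to viability, T/C: 100% = DMSO vehicle control viability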
Conditions: for IC50: curve of first compound; for viability, T/C: stronger effect = lower value
Procedure, shortened: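 Complex tumor spheroids combined malignant cells with endothelial cells and mesenchymal stem cells. DNA-damaging drugs and DNA repair inhibitors were tested alone and in combination, at half-log dilutions down from clinical Cmax (top 10 microM if Cmax unknown), 0.25% DMSO final.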

[1] = second compound 1 µM, first compound 0.0316 µM
[2] = second compound 1 µM, first compound 0.1 µM
[3] = second compound 1 µM, first compound 0.316 µM
[4] = second compound 1 µM, first compound 1 µM
[5] = second compound 1 µM, first compound 3.16 µM
[6] = second compound 1 µM, first compound 10 µM
[7] = second compound 3.16 µM, first compound 0.0316 µM
[8] = second compound 3.16 µM, first compound 0.1 µM
[9] = second compound 3.16 µM, first compound 0.316 µM
[10] = second compound 3.16 µM, first compound 1 µM
[11] = second compound 3.16 µM, first compound 3.16 µM
[12] = second compound 3.16 µM, first compound 10 µM
[13] = second compound 10 µM, first compound 0.0316 µM
[14] = second compound 10 µM, first compound 0.1 µM
[15] = second compound 10 µM, first compound 0.316 µM
[16] = second compound 10 µM, first compound 1 µM
[17] = second compound 10 µM, first compound 3.16 µM
[18] = second compound 10 µM, first compound 10 µM
[19] = second compound 31.6 µM, first compound 0.0316 µM
[20] = second compound 31.6 µM, first compound 0.1 µM
[21] = second compound 31.6 µM, first compound 0.316 µM
[22] = second compound 31.6 µM, first compound 1 µM
[23] = second compound 31.6 µM, first compound 3.16 µM
[24] = second compound 31.6 µM, first compound 10 µM
[25] = second compound 100 µM, first compound 0.0316 µM
[26] = second compound 100 µM, first compound 0.1 µM
[27] = second compound 100 µM, first compound 0.316 µM
[28] = second compound 100 µM, first compound 1 µM
[29] = second compound 100 µM, first compound 3.16 µM
[30] = second compound 100 µM, first compound 10 µM

Row | Compound | IC50 (second compound 1 µM) [µM] | IC50 (second compound 3.16 µM) [µM] | IC50 (second compound 10 µM) [µM] | IC50 (second compound 31.6 µM) [µM] | IC50 (second compound 100 µM) [µM] | viability, T/C [1] [%] | viability, T/C [2] [%] | viability, T/C [3] [%] | viability, T/C [4] [%] | viability, T/C [5] [%] | viability, T/C [6] [%] | viability, T/C [7] [%] | viability, T/C [8] [%] | viability, T/C [9] [%] | viability, T/C [10] [%] | viability, T/C [11] [%] | viability, T/C [12] [%] | viability, T/C [13] [%] | viability, T/C [14] [%] | viability, T/C [15] [%] | further results
1 | Cc1cc(C)c(CNC(=O)c2cc(-c3ccc(CN4CCOCC4)cc3)cc3c2cnn3C2CCCC2)c(=O)[nH]1 + Cn1nnc2c(C(N)=O)ncn2c1=O | > 10 | > 10 | > 10 | > 10 | > 10 | 113 | 125 | 106 | 115 | 131 | 102 | 125 | 135 | 113 | 113 | 97.4 | 119 | 128 | 136 | 122 | viability, T/C [16]: 109%; viability, T/C [17]: 111%; viability, T/C [18]: 125%; viability, T/C [19]: 123%; viability, T/C [20]: 108%; viability, T/C [21]: 116%; viability, T/C [22]: 109%; viability, T/C [23]: 103%; viability, T/C [24]: 144%; viability, T/C [25]: 108%; viability, T/C [26]: 114%; viability, T/C [27]: 122%; viability, T/C [28]: 130%; viability, T/C [29]: 110%; viability, T/C [30]: 132%
2 | [2H]c1nc(C)nc([2H])c1-c1cc(NC[C@@H](C)c2cccc3c(C(=O)NC)ccnc23)ncn1 + Cn1nnc2c(C(N)=O)ncn2c1=O | > 10 | > 10 | > 10 | > 10 | > 10 | 115 | 107 | 118 | 112 | 114 | 121 | 114 | 114 | 113 | 101 | 123 | 122 | 112 | 122 | 115 | viability, T/C [16]: 110%; viability, T/C [17]: 113%; viability, T/C [18]: 115%; viability, T/C [19]: 103%; viability, T/C [20]: 102%; viability, T/C [21]: 119%; viability, T/C [22]: 120%; viability, T/C [23]: 123%; viability, T/C [24]: 116%; viability, T/C [25]: 141%; viability, T/C [26]: 129%; viability, T/C [27]: 112%; viability, T/C [28]: 116%; viability, T/C [29]: 117%; viability, T/C [30]: 121%
